For two compounds, IC50 results are on record in patent US8722731B2, “Furanyl compounds and the use thereof” (NovoMedix, LLC, priority 2010, dated 2014).

Some results are limits rather than exact numbers.

For one assay, the system named is MHH-CALL-4. The assay can be described thus: IC50 cell-based assay, suspension cells, MHH-CALL-4. As to conditions: MHHCALL4, Leukemia, B-ALL (CRLF2 Hi), read-out: IC50 of Compounds in Suspension Cell Types. The protocol:
(§1) In one embodiment, the IC50s of the compounds provided herein were determined in cell-based assays using adherent cells. In one embodiment, the activity of the compounds provided herein were determined in a cell-based assay using the triple negative breast cancer cell line MDA-MB-468. In one embodiment, the adherent cells used in the cell-based assays may be a cell type selected from Table 1. In one embodiment, the cell-based assay may be carried out as provided herein. On day 0, cells were seeded at 20,000 cells per well in 100 µL of media into individual wells of a 96-well tissue culture plate. The next day, compounds were diluted to twice the desired final concentration and added in 100 µL of media for a final volume of 200 μL. Standard solutions for each compound were prepared at 1000× concentration in DMSO. The highest concentration was 30 mM. Serial 1:1 dilutions were made from there for a 6- or 9-point curve (e.g., 30 mM, 15 mM, 7.5 mM, etc). Compounds were then diluted 1:500 in media, and 100 µL of the resulting solution was added to each well for a final dilution of 1:1000. Each concentration of compound was tested in triplicate. Cells were incubated at 37° C. with 5% CO2. After 72 hours, 20 μL of CellTiter 96 Aqueous One Solution Cell Proliferation Assay (Promega) was added to each well. Cells were placed back in the incubator, and the absorbance at 490 nm was read after 2-3 hours. The concentration of compound that decreased the number of metabolically active cells by 50% was determined and reported as the IC50. “Percent Viability” was determined by subtracting the average background value (media only) and expressed as a ratio to the average value obtained from cells treated with only DMSO.
(§2) In one embodiment, the IC50s of the compounds provided herein were determined in cell-based assays using suspension cells. In one embodiment, the activity of the compounds provided herein were determined in a cell-based assay using the JeKo-1 cell line (mantle cell lymphoma) or the Pfeiffer cell line (diffuse large B-cell lymphoma). In one embodiment, the suspension cells used in the cell-based assays may be a cell type selected from Table 2. Assays with suspension cells were similar except that 40,000-60,000 cells were added to each well and compounds were added immediately after cell plating.

The test system of the next assay is XPA-1. The assay can be described thus: IC50 cell-based assay, adherent cells, XPA-1. The conditions noted are these: Pancreas, 72 hours, read-out: IC50 of Compounds in Adherent Cell Types. On the procedure: (§3) In one embodiment, the IC50s of the compounds provided herein were determined in cell-based assays using adherent cells. In one embodiment, the activity of the compounds provided herein were determined in a cell-based assay using the triple negative breast cancer cell line MDA-MB-468. In one embodiment, the adherent cells used in the cell-based assays may be a cell type selected from Table 1. In one embodiment, the cell-based assay may be carried out as provided herein. On day 0, cells were seeded at 20,000 cells per well in 100 µL of media into individual wells of a 96-well tissue culture plate. The next day, compounds were diluted to twice the desired final concentration and added in 100 µL of media for a final volume of 200 μL. Standard solutions for each compound were prepared at 1000× concentration in DMSO. The highest concentration was 30 mM. Serial 1:1 dilutions were made from there for a 6- or 9-point curve (e.g., 30 mM, 15 mM, 7.5 mM, etc). Compounds were then diluted 1:500 in media, and 100 µL of the resulting solution was added to each well for a final dilution of 1:1000. […] Cells were placed back in the incubator, and the absorbance at 490 nm was read after 2-3 hours. […] “Percent Viability” was determined by subtracting the average background value (media only) and expressed as a ratio to the average value obtained from cells treated with only DMSO.

The test system of a further assay is HEK-293. Put plainly: IC50 cell-based assay, adherent cells, HEK-293. The conditions noted are these: Homo sapiens, HEK293, Kidney, embryonic, 72 hours, read-out: IC50 of Compounds in Adherent Cell Types. On the procedure: as §3
The test system of another assay is K562. Put plainly: IC50 cell-based assay, suspension cells, K562. The conditions noted are these: Homo sapiens, Leukemia, CML, read-out: IC50 of Compounds in Suspension Cell Types. The protocol:
(§4) In one embodiment, the IC50s of the compounds provided herein were determined in cell-based assays using adherent cells. In one embodiment, the activity of the compounds provided herein were determined in a cell-based assay using the triple negative breast cancer cell line MDA-MB-468. In one embodiment, the adherent cells used in the cell-based assays may be a cell type selected from Table 1. In one embodiment, the cell-based assay may be carried out as provided herein. On day 0, cells were seeded at 20,000 cells per well in 100 µL of media into individual wells of a 96-well tissue culture plate. The next day, compounds were diluted to twice the desired final concentration and added in 100 µL of media for a final volume of 200 μL. […] Cells were placed back in the incubator, and the absorbance at 490 nm was read after 2-3 hours. […] “Percent Viability” was determined by subtracting the average background value (media only) and expressed as a ratio to the average value obtained from cells treated with only DMSO.
(§5) In one embodiment, the IC50s of the compounds provided herein were determined in cell-based assays using suspension cells. In one embodiment, the activity of the compounds provided herein were determined in a cell-based assay using the JeKo-1 cell line (mantle cell lymphoma) or the Pfeiffer cell line (diffuse large B-cell lymphoma). […]

In a further assay the test system is Du145. Put plainly: IC50 cell-based assay, adherent cells, Du145. As to conditions: Homo sapiens, DU-145, Prostate, carcinoma, 72 hours, read-out: IC50 of Compounds in Adherent Cell Types. The protocol: as §3
Another assay relates to BxPc-3. The assay can be described thus: IC50 cell-based assay, adherent cells, BxPc-3. As to conditions: Homo sapiens, Pancreas, adenocarcinoma, 72 hours, read-out: IC50 of Compounds in Adherent Cell Types. The protocol:
as §3

A further assay has as its system MDA-MB-435. Put plainly: IC50 cell-based assay, adherent cells, MDA-MB-435. As to conditions: Homo sapiens, Breast, carcinoma—ductal, 72 hours, read-out: IC50 of Compounds in Adherent Cell Types. On the procedure:
as §3

A further assay relates to Molt-4. Put plainly: IC50 cell-based assay, suspension cells, Molt-4. The conditions noted are these: Homo sapiens, Leukemia, ALL, read-out: IC50 of Compounds in Suspension Cell Types. On the procedure:
as §4, §5

A further assay concerns SupB15. The assay can be described thus: IC50 cell-based assay, suspension cells, SupB15. As to conditions: Homo sapiens, SUP-B15, Leukemia, B-ALL (Philadelphia chromosome+), read-out: IC50 of Compounds in Suspension Cell Types. The protocol: as §1, §2
Another assay relates to MS1. Put plainly: IC50 cell-based assay, adherent cells, MS1. The conditions noted are these: Mus musculus, MS-1, Pancreas, angiosarcoma, 72 hours, read-out: IC50 of Compounds in Adherent Cell Types. On the procedure:
as §3

For a further assay, the system named is MDA-MB-415. The assay can be described thus: IC50 cell-based assay, adherent cells, MDA-MB-415. The conditions noted are these: Homo sapiens, Breast, adenocarcinoma, 72 hours, read-out: IC50 of Compounds in Adherent Cell Types. On the procedure:
as §3

The next assay deals with Mia PaCa-2. The assay can be described thus: IC50 cell-based assay, adherent cells, Mia PaCa-2. The conditions noted are these: Homo sapiens, Pancreas, carcinoma, 72 hours, read-out: IC50 of Compounds in Adherent Cell Types. The protocol: as §3
The test system of another assay is A549. Put plainly: IC50 cell-based assay, adherent cells, A549. The conditions noted are these: Homo sapiens, Lung, NSCLC, 72 hours, read-out: IC50 of Compounds in Adherent Cell Types. The protocol: as §1
The next assay deals with SEMK. The assay can be described thus: IC50 cell-based assay, suspension cells, SEMK. The conditions noted are these: Leukemia, read-out: IC50 of Compounds in Suspension Cell Types. The protocol: as §4, §5

One may read the IC50 as the concentration needed to halve the response being measured. For `O=C(Nc1cc(C(F)(F)F)cc(C(F)(F)F)c1)c1cc(-c2ccccc2)oc1C(F)(F)F` [Compound 1, 5-Phenyl-2-trifluoromethyl-furan-3-carboxylic acid (3,5-bis-trifluoromethyl-phenyl)-amide], the IC50 with MHH-CALL-4 is 5 to 10 µM; in the assay on XPA-1, 5 to 10 µM; in the assay with HEK-293, under 5 µM; in the assay with K562, under 5 µM; in the assay on Du145, 5 to 10 µM; in the assay with BxPc-3, 5 to 10 µM. Also, the IC50 in the assay with MDA-MB-435, in the assay on Molt-4, in the assay with SupB15, in the assay with MS1, in the assay with MDA-MB-415 and in the assay with Mia PaCa-2 was under 5 µM in each case. The IC50 with A549 and with SEMK was under 5 µM each time.
As to `O=C(Nc1cc(C(F)(F)F)cc(C(F)(F)F)c1)c1cc(-c2ccc(Cl)cc2)oc1C(F)(F)F` [Compound 2, 5-(4-Chlorophenyl)-N-(3,5-bistrifluoromethylphenyl)-2-trifluoromethylfuran-3-carboxamide], the concentration for half-maximal inhibition (IC50) with MHH-CALL-4 is under 5 µM; with SupB15, under 5 µM; with A549, 5 to 10 µM.
